Source: patent publication US4835159A, “Ergoline esters useful as serotonin antagonists” (Eli Lilly and Company, priority 1988, dated 1989)
Counter-ions that a name gives are not always drawn. Like-named read-outs stand apart in the source and are kept apart here.

Target: T1, 5HT2 receptors (Rattus norvegicus, UniProt P14842)
T1 construct: external jugular veins and thoracic aortas were dissected free of connective tissue; from tissue; host or cells: isolated external jugular vein of male Wistar rats
Assay: Apparent antagonist dissociation constant (KB) for 5HT2 receptors: serotonin-induced contraction of isolated jugular vein
Parameters: species or system rat (male Wistar)
Excerpt: Male Wistar rats, each weighing from approximately 150 g to about 300 g, were sacrificed and their external jugular veins and thoracic aortas were dissected free of connective tissue, cannulated in situ and placed in a modified Krebs' bicarbonate buffer in a suitable tissue bath. Two L-shaped 30-gauge stainlesssteel hypodermic needles were inserted into each cannula and the dissected vessels gently pushed onto the needles. One needle was attached with thread to a stationary glass rod and the other to the transducer. The modified Krebs' bicarbonate buffer was composed of the following ingredients in millimoles: sodium chloride, 118.2; potassium chloride, 4.6; calcium chloride dihydrate, 1.6; potassium dihydrogenphosphate, 1.2; magnesium sulfate, 1.2; dextrose, 10.0; sodium bicarbonate, 24.8; and water q.s. to 1000 g. The tissue baths were maintained at 37° C. and were aerated with 95% oxygen-5% carbon dioxide. An initial optimum resting force of 1 g and 4 g was applied to the jugular vein and aorta, respectively. Isometric contractions were recorded as changes in grams of force on a Beckman Dynograph with Statham UC-3 transducers and a microscale accessory attachment. Tissues were allowed to equilibrate 1 to 2 hours before exposure to the test compounds. Control responses to serotonin in the jugular vein and to norepinephrine in the aorta were obtained. The vessels were then incubated with appropriate concentrations of the test compound for one hour. Responses to serotonin or to norepinephrine were then repeated in the presence of the antagonist. Contraction to serotonin was evaluated in the jugular vein since this tissue is known to produce marked responses to serotonin in the absence of alpha receptors. See Cohen and Wiley, J. Pharm. Exp. Ther., 205, 400 (1978). Alpha receptor antagonist activity was evaluated in the aorta.
Apparent antagonist dissociation constants were determined for each concentration of antagonist according to the following equation: […]

T1 sequence (P14842 whole entry): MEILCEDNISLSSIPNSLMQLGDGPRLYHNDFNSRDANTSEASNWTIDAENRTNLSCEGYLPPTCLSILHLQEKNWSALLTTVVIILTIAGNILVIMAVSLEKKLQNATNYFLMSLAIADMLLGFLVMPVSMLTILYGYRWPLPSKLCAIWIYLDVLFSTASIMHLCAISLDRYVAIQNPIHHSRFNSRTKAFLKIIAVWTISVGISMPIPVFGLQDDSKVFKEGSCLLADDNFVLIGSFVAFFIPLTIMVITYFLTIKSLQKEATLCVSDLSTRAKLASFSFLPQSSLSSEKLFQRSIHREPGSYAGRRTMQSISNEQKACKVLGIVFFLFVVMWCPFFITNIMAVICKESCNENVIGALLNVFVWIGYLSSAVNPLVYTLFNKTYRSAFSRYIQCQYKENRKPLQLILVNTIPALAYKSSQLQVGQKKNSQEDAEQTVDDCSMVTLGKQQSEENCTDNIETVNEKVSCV

Compound | Kb (rat jugular vein, contraction to serotonin, 1 hour incubation with test compound, 37° C., average of the number of trials, read-out: log KB ± standard error (-log KB, serotonin receptor activity) (converted)) | Kb
CC(C)n1cc2c3c(cccc31)[C@H]1C[C@@H](C(=O)OC3CCCC4C(O)CCCC34)CN(C)[C@@H]1C2 (stereo partly drawn) [Example 1, Decahydro-t-hydroxy-1-naphthalenyl 1-isopropyl-9,10-dihydrolysergate maleate] | 224 pM | –
CC(C)n1cc2c3c(cccc31)[C@H]1C[C@@H](C(=O)OC3CCC4CCCCC4C3)CN(C)[C@@H]1C2 (stereo partly drawn) [Example 2, Decahydro-2-naphthalenyl 1-isopropyl-9,10-dihydrolysergate maleate] | – | < 100000 pM
CC(C)n1cc2c3c(cccc31)[C@H]1C[C@@H](C(=O)OC3CC4CC(O)CC4C3)CN(C)[C@@H]1C2 (stereo partly drawn) [Example 3, Octahydro-5-hydroxy-2-pentalenyl 1-isopropyl-9,10-dihydrolysergate hemihydrate] | – | 631 pM
